The results in this text go back to ChEMBL document CHEMBL5465560, “Selectivity Literature for EUbOPEN Chemogenomic Library” (2024).

Experiment [1] addresses Tyrosine-protein kinase CSK (Homo sapiens) (UniProt P41240). Kind of experiment: Selectivity interaction (ActivX KiNativ screen (ex vivo kinase selectivity in human PBMCs)) EUB0001619a CSK. Format: cell-based. Conditions: PBMC, at 1 µM.
Experiment [2] concerns the target Serine/threonine-protein kinase MARK2 (Homo sapiens) (UniProt Q7KZI7). Kind of experiment: Selectivity interaction (ActivX KiNativ screen (kinase selectivity in THP-1 cell lysates)) EUB0000639a MARK2. Conditions: lysate, at 0.01 µM. Format: subcellular.
For experiment [3], the target named is ALK tyrosine kinase receptor (Homo sapiens, UniProt Q9UM73). Kind of experiment: Selectivity interaction (ProQinase) EUB0000171b ALK. The conditions noted are these: at 5 µM.
In experiment [4] the target is Casein kinase II subunit alpha (Homo sapiens, UniProt P68400). Kind of experiment: Selectivity interaction (KinomeScan (DiscoverX)) EUB0000618a CSNK2A1. The conditions noted are these: at 10 µM.
In experiment [5] the target is T1, Peripheral plasma membrane protein CASK (Homo sapiens) (UniProt O14936).
T1 sequence (whole entry): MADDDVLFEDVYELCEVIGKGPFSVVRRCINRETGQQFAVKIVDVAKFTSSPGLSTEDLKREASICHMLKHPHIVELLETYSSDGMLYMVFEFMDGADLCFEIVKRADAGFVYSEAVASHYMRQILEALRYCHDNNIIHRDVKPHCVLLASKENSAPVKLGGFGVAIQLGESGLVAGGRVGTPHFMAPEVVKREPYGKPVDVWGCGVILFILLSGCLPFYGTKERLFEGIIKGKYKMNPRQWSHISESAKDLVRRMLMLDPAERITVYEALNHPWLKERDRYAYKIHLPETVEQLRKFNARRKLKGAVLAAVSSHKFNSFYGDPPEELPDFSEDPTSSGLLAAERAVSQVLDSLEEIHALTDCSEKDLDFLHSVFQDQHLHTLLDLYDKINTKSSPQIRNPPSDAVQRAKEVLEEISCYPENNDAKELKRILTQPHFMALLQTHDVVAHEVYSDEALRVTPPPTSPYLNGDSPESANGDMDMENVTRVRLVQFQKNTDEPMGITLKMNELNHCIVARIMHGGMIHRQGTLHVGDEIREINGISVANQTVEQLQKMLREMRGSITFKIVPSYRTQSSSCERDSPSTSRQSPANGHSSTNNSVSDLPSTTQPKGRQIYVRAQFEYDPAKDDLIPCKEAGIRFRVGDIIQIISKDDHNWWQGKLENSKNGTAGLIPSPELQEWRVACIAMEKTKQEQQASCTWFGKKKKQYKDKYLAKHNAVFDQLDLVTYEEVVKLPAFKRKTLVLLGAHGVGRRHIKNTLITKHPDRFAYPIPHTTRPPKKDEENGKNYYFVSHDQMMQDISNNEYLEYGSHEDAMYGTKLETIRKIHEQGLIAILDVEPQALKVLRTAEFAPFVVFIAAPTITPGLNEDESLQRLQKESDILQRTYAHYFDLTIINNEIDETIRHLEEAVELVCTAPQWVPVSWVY
Kind of experiment: Selectivity interaction (KinomeScan (DiscoverX)) EUB0000092b CASK. The conditions noted are these: at 10 µM.

In experiment [6] the target is Calcium/calmodulin-dependent protein kinase type 1G (Homo sapiens) (UniProt Q96NX5). Kind of experiment: Selectivity interaction (KinomeScan (DiscoverX)) EUB0001079a CAMK1G. Conditions: at 1 µM.
Experiment [7] deals with T2, Mitogen-activated protein kinase kinase kinase 19 (Homo sapiens) (UniProt Q56UN5).
T2 sequence (whole entry): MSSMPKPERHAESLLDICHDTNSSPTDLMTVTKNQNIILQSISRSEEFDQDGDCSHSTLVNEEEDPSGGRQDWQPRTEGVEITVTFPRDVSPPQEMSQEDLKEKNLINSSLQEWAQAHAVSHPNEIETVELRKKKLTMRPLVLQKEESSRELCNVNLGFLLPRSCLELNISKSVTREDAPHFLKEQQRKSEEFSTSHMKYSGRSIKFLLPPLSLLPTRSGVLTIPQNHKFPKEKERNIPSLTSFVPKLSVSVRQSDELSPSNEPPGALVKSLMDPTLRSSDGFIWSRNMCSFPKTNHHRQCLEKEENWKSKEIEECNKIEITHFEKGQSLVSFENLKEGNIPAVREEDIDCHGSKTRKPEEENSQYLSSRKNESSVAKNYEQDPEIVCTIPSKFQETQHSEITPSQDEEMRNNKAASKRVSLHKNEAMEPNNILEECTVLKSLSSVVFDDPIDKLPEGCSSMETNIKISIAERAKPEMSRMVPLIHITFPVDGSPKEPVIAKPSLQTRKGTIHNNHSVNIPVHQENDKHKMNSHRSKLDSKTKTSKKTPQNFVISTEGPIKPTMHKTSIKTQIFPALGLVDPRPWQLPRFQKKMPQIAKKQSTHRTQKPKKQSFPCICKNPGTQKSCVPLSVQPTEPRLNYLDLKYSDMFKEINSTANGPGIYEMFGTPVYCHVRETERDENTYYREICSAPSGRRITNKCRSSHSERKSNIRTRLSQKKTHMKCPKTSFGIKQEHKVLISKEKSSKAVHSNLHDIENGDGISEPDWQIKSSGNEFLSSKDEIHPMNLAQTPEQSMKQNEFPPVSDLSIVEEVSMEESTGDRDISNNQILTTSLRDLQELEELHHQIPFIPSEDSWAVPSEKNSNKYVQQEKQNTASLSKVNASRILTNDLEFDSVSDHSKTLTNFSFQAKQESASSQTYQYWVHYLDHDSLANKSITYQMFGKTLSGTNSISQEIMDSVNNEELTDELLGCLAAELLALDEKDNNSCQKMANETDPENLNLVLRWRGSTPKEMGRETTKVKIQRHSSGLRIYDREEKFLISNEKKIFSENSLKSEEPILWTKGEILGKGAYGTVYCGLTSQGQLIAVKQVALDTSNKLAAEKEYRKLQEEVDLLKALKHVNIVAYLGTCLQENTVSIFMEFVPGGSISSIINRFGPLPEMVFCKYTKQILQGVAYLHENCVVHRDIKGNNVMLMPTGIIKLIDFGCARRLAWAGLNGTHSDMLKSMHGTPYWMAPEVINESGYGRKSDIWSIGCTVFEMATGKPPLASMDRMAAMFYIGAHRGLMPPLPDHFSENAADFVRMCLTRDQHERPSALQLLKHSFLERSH
Kind of experiment: Selectivity interaction (KinomeScan (DiscoverX)) EUB0001079a MAP3K19. The conditions noted are these: at 1 µM.

Calcium/calmodulin-dependent protein kinase type 1G (Homo sapiens), sequence (Q96NX5 whole entry): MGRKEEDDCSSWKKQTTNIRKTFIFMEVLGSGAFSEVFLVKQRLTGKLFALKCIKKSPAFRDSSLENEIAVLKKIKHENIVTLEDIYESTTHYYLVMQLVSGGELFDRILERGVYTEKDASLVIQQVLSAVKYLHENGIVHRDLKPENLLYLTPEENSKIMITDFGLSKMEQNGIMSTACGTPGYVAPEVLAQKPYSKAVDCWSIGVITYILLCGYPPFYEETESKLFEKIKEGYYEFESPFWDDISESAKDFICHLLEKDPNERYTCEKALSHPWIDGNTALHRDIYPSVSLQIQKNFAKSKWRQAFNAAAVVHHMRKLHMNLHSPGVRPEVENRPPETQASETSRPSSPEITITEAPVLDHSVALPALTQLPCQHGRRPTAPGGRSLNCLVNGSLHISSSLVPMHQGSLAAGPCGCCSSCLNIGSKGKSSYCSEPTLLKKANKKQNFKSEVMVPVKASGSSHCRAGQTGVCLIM
Casein kinase II subunit alpha, sequence (P68400 whole entry, looked up): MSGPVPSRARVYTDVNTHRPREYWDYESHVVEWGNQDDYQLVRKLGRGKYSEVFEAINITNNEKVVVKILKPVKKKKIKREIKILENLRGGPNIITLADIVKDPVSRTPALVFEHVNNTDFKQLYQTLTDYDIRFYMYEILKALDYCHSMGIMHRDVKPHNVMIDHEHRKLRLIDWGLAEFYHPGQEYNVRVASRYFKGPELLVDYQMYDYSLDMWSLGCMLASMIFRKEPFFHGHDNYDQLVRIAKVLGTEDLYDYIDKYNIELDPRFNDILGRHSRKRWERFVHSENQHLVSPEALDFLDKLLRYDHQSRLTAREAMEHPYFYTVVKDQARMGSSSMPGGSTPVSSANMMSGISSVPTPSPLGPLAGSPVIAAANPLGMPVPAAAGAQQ
ALK tyrosine kinase receptor, sequence (Q9UM73 19-1620 limits assumed): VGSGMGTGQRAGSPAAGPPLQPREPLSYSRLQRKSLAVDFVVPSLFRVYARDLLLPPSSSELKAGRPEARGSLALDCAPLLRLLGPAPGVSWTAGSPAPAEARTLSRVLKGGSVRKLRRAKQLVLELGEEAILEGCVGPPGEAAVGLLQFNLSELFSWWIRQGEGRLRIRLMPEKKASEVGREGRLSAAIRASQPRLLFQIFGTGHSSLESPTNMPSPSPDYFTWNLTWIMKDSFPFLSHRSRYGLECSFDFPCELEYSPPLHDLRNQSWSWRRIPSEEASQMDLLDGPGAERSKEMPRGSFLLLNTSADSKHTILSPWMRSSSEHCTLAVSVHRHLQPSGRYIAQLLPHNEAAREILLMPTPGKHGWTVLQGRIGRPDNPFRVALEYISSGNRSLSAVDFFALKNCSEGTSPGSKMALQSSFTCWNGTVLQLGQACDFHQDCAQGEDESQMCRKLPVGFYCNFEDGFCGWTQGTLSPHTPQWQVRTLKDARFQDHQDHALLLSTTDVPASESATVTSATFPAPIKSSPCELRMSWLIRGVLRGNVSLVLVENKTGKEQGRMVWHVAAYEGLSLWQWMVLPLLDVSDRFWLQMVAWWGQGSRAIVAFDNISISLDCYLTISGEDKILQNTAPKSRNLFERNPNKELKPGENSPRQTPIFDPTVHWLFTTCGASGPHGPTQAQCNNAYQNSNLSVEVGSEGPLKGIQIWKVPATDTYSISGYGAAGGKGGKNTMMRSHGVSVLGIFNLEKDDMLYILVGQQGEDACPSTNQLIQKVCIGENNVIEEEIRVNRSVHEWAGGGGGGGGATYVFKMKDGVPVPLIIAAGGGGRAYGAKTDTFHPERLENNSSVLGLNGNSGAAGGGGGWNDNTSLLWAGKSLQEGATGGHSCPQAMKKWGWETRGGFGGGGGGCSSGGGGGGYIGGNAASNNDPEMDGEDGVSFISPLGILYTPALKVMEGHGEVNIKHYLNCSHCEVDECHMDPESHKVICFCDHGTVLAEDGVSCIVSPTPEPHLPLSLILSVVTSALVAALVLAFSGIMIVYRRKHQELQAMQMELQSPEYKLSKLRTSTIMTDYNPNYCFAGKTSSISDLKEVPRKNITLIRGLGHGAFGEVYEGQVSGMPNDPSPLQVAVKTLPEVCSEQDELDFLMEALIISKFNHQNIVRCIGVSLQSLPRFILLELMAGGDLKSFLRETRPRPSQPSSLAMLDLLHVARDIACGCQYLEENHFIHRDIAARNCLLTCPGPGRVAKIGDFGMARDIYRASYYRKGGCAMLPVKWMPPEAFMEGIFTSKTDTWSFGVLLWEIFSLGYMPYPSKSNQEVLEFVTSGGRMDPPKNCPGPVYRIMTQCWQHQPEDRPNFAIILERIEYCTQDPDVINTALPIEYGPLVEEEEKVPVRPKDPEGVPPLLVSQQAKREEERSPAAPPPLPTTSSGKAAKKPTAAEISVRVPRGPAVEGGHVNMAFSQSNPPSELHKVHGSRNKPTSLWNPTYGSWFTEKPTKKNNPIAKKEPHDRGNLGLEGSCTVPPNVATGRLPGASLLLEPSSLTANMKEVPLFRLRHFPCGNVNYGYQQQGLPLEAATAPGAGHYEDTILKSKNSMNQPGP
Tyrosine-protein kinase CSK (Homo sapiens), sequence (P41240 2-450 limits assumed): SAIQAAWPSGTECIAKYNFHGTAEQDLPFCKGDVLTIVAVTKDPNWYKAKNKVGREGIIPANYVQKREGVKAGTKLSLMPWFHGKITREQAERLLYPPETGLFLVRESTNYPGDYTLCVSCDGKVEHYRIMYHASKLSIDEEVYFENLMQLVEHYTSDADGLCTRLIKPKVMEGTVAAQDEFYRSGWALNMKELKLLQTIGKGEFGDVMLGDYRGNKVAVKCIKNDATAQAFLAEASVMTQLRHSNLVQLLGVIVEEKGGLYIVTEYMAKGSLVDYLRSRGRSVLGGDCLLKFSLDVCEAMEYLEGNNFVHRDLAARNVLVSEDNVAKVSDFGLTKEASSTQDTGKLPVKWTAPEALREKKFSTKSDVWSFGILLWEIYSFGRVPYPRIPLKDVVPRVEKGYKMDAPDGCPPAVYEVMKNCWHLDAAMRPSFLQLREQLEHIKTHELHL
Serine/threonine-protein kinase MARK2 (Homo sapiens), sequence (Q7KZI7 whole entry): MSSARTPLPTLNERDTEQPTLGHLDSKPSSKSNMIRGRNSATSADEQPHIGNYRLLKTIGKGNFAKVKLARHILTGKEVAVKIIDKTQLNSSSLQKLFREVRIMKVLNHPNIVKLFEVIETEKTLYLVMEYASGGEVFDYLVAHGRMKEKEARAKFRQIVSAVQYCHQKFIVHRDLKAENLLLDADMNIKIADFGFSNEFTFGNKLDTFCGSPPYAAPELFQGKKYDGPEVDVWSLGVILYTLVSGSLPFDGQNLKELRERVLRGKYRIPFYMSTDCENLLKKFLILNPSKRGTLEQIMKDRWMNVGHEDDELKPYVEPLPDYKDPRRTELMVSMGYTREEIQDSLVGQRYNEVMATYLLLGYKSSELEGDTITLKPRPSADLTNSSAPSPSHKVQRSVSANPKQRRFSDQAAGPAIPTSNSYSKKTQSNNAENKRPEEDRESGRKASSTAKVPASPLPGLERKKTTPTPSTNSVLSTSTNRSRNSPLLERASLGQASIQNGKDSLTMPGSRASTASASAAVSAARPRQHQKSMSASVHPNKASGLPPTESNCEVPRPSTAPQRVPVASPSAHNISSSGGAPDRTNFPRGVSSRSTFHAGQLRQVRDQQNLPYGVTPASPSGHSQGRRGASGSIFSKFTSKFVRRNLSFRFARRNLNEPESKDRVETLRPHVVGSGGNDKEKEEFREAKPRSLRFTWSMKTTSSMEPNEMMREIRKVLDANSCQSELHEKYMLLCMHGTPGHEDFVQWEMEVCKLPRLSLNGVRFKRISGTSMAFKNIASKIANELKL

Consider `N#Cc1cccc(-c2c[nH]c3ncnc(N4CCOCC4)c23)c1`, for which, in experiment [1], the % of inhibition is -2%.

For `CC[C@@H]1[C@H](F)C(=O)N[C@@H]1COc1nccc2cc(C(N)=O)c(OC)cc12` [ZIMLOVISERTIB], the % of inhibition in experiment [2] is -5.4%.

`C=CC(=O)Nc1cccc(C(=O)Nc2ccc(Nc3cc(-c4[nH]c(SC)nc4C)ccn3)cc2)c1` yielded a % of control in experiment [3] of 96%.

In the case of `O[C@H]1CC[C@H](Nc2ncc3nc(Nc4c(F)cc(F)cc4F)n([C@H]4CCOC4)c3n2)CC1`, the % of control in experiment [4] amounted to 100%.

Turning to `CCC(=O)N1CCN(c2ccc(-n3c(=O)ccc4cnc5ccc(-c6cnc7ccccc7c6)cc5c43)cc2C(F)(F)F)CC1`, the % of control in experiment [5] came out at 100%.

With `Nc1cnc(N2CCc3cc(S(=O)(=O)Nc4c(F)cc(Cl)cc4F)cc(N4CCCC4=O)c32)nc1` [TP-020n], the % of control in experiment [6] and in experiment [7] was 100% each time.
